Test results published in PMC9281569, “Two HCN4 Channels Play Functional Roles in the Zebrafish Heart” (Frontiers in Physiology, 2022).
“And” between values parts separate entries of the source, which are not always exact repeats. Identical values can stand only once. Counter-ions that a name gives are not always drawn. Like-named read-outs stand apart in the source and are kept apart here.

Columns and labels:
DrHCN4L = molecular target: T1, DrHCN4L (Danio rerio, UniProt A0A8N7TEJ3); assay: Inhibition of HCN4 currents in Xenopus oocytes, two-electrode voltage clamp; format: cell-based, zebrafish (Danio rerio); conditions: holding −30 mV, hyperpolarized to −120 mV for 2 s, room temperature
T1 sequence (A0A8N7TEJ3 1-1188): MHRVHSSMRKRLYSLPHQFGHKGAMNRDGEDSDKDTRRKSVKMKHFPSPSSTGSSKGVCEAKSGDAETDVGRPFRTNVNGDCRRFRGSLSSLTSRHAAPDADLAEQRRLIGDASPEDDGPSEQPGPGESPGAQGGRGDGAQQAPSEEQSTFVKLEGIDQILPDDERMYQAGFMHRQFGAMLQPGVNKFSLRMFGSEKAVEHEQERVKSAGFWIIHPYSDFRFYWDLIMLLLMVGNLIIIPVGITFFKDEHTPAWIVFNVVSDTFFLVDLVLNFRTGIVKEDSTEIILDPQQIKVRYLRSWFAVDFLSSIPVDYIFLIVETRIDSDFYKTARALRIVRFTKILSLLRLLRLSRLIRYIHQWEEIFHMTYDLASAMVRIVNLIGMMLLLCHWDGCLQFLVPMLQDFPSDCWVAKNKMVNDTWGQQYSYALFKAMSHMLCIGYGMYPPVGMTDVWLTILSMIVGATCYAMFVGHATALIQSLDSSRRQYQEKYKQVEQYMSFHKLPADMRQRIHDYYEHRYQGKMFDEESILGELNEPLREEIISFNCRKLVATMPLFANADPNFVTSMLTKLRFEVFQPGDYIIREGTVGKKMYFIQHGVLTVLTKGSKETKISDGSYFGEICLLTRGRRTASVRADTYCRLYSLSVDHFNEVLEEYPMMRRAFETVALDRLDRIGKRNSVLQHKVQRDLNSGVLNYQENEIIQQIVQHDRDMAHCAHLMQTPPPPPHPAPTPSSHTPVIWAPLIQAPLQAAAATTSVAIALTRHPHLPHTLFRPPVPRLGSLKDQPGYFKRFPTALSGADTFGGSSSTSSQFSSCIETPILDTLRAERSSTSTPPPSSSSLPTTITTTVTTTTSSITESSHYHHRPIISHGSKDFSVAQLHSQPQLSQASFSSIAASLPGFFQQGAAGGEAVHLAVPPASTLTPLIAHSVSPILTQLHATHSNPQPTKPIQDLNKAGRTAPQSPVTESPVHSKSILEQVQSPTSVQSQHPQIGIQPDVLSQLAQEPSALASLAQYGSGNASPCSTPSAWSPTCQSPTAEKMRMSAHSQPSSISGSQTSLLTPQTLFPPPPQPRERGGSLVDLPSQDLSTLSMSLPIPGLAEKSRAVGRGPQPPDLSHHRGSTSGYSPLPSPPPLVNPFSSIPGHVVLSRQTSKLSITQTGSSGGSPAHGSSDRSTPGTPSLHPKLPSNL

[1] = test system: Isolated adult zebrafish heart; parameters: method as in Stoyek et al., 2022; conditions: bath application; ref Stoyek et al., 2022; cited from earlier work
patients = test system: patients; parameters: method as in Swedberg et al., 2010; conditions: administration to patients; ref Swedberg et al., 2010; cited from earlier work
[2] = DrHCN4L in Xenopus oocytes, read-out: IC50

Row | SMILES | IC50 (DrHCN4L; DrHCN4L in Xenopus oocytes, listed as Cs^+, read-out: IC50) | IC50 (DrHCN4L; [2]) | Block of isolated adult zebrafish heart [1] | IC50 (DrHCN4L; IC50, DrHCN4L in Xenopus oocytes) | Reduction of heart rate (patients)
1 | [Cl-].[Cs+] [Cesium ion, Cesium chloride] | 48 ± 7 µM | 48.3 ± 6.9 µM | 73% |  | 
2 | COc1cc2c(cc1OC)CC(=O)N(CCCN(C)C[C@H]1Cc3cc(OC)c(OC)cc31)CC2 [Ivabradine, ivabradine hydrochloride] |  |  | 86% | 10 µM and 10.4 µM | about 20%
3 | CCN(c1ccccc1)c1cc(=NC)n(C)c(C)n1.Cl [ZD7288] |  | 596 ± 383 µM |  |  | 
